Earlier results, collected in patent publication US11147800B2 (Race Oncology Ltd., priority 2013, dated 2021).
Counter-ions that a name gives are not always drawn.

What was measured:
[1] = system: telomerase-expressing cells and ALT-positive cell lines
L1210 leukemia cells = conditions: typical of inhibition of DNA topoisomerase II
[2] = system: hepatic microsomal enzymes; conditions: in vitro
[3] = system: colon 26, Lewis lung, Ridgway osteosarcoma, B16, Lieberman plasma cell, P388 or L1210 cancer cells
[4] = not given; remark: listed apart in the source
[5] = not given; remark: listed apart in the source
[6] = not given; remark: listed apart in the source
[7] = not given; remark: listed apart in the source
[8] = preclinical
[9] = target: glycogen synthase kinase-3β (GSK-3β) (Homo sapiens, UniProt P49841)
glycogen synthase kinase-3β (GSK-3β), sequence (P49841 whole entry, species assumed): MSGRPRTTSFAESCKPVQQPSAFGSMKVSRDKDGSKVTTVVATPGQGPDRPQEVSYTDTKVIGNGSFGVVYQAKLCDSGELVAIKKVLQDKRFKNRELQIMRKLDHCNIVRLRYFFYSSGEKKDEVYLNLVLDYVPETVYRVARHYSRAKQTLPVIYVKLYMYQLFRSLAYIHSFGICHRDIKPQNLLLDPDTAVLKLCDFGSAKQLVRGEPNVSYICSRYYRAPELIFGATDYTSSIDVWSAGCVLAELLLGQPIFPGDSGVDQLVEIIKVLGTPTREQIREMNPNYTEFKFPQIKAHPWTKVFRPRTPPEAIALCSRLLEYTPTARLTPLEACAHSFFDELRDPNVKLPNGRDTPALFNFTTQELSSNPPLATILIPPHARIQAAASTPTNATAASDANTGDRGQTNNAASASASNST

[10] = local injection
[11] = single dose study, the last study
[12] = single dose study, triphasic elimination, second study

## C(=N\NC1=NCCN1)/c1cccc2cc3c(/C=N/NC4=NCCN4)cccc3cc12 [Formula (III)]
[1]
  DNA damage response (γH2AX foci partially co-localized at the telomere): consistently provokes a DNA damage response

## C(=NNC1=NCCN1)c1c2ccccc2c(C=NNC2=NCCN2)c2ccccc12 [bisantrene, 9,10-anthracenedicarboxaldehyde bis[(4,5-dihydro-1H-imidazol-2-yl)hydrazine] dihydrochloride]
L1210 leukemia cells
  DNA strand breaks: induce protein-associated DNA strand breaks
Phase II, heavily pretreated patients
  activity in metastatic breast cancer: active
Hepatocellular cancer and hypernephroma (one patient each), lymphoma, myeloma, melanoma, renal cancer, bladder and lung tumors
  activity in phase I clinical trials: showed activity
Phase II
  activity in refractory malignant melanoma: inactive
Tested in vitro or in vivo (phase II advanced colorectal cancer)
  activity in human colon cancer: inactive
[2]
  substrate for hepatic microsomal enzymes: substrate
[3]; P-388 leukemia and B-16 melanoma
  antitumor activity in murine tumor models: antitumor activity
[3]; i.v., i.p. or s.c., colon 26, Lewis lung, Ridgway osteosarcoma, B16, Lieberman plasma cell, P388 or L1210
  activity in cancer models, parenteral: effective
[3]; orally
  activity in cancer models, oral: inactive
[4]; human, in vivo
  local tissue toxicity if extravasated: potent vesicant
  patients reporting malaise: up to one-half of patients
[4]; phase III trial
  cardiotoxicity compared with mitoxantrone or doxorubicin: less cardiotoxic
Human Platelets
  platelet aggregation: inhibit platelet aggregation
[5]; in vivo
  major dose-limiting toxic effect: leukopenia
[5]; phase I doses between 190-430 mg/m^2 q3w
  DLT: neutropenia
[6]; 72-hr infusion study, in 24 hr
  urinary excretion of the dose: 4.6%
[6]; [11]
  triphasic elimination, first phase (given as clearances): 0.1 h
  triphasic elimination, second phase (given as clearances): 1.9 h
  triphasic elimination, third phase (given as clearances): 43.9 h
[6]; [12]
  t½α: 3 min
  t½β: 1 h
  t½γ: 8 h
[7]; animals
  cardiotoxicity in animals: not cardiotoxic
[7]; dogs and monkeys, high doses
  toxic findings: leukopenia, anorexia, diarrhea, injection site necrosis, enterocolitis, muscle degeneration, and pulmonary edema
Human tumor cells
  cross resistance with adriamycin and mitoxantrone: lack of cross resistance
Human tumor cells; breast, ovarian, renal, small cell and non-small cell lung, lymphoma, AML, melanoma, gastric, adrenal, head and neck cancer
  sensitivity in in vitro colony-forming assays: sensitive
macrophages
  minimal effective in vivo dose for macrophage activation: 25 mg/kg
[8]
  Brain levels: extremely low
  tissues with the highest concentration (in descending order): kidney, liver, gallbladder, spleen, lung, and heart

## CN1C(=O)/C(=C2/C(=O)Nc3ccccc32)c2ccccc21 [meisoindigo]
[9]
  concentration for inhibition of GSK-3β: 5 to 50 nM

## O=C([O-])O.[Na+] [sodium bicarbonate]
[10]
  bisantrene extravasation necrosis: blocked
